In ChEMBL document CHEMBL1141311, “Bioactive secondary metabolites from Boesenbergia pandurata of Myanmar and their preferential cytotoxicity against human pancreatic cancer PANC-1 cell line in nutrient-deprived medium” (2007):

Test system: PANC-1
Assay: Cytotoxicity against human PANC1 cells assessed as cell viability
Assay type: functional

Row | Compound | PC100 [µM]
1 | COc1cc(O)cc(O)c1C(=O)[C@@H]1[C@H](CC=C(C)C)C(C)=CC[C@H]1c1ccc(O)cc1 (racemic) | >256
2 | COc1cc(O)cc2c1C(=O)C[C@@H](c1ccccc1)O2 | >256
3 | COc1cc2c(c(O)c1C/C=C(\C)CCC=C(C)C)C(=O)C[C@@H](c1ccccc1)O2 | 128
4 | CC(C)=CC[C@@H]1C(C)=CC[C@@H](C(=O)c2c(O)cc(O)cc2O)[C@@H]1c1ccccc1 | 16
5 | COc1cc(O)cc2c1C(=O)C[C@@H](c1ccc(O)cc1)O2 | >256
6 | COc1cc(O)c2c(c1C/C=C(\C)CCC=C(C)C)O[C@@H](c1ccccc1)CC2=O | 128
7 | COc1cc(O)c(C(=O)/C=C/c2ccccc2)c2c1C=CC(C)(CCC=C(C)C)O2 (stereo unspecified) [BOESENBERGIN A] | 64
8 | COc1cc(C[C@H]2C(=O)OC[C@@H]2Cc2ccc(OC)c(OC)c2)ccc1O [ARCTIGENIN] | 1
9 | COc1cc(O)c2c(=O)cc(-c3ccccc3)oc2c1 [TECHTOCHRYSIN] | >256
10 | COc1cc2c(c(O)c1C(=O)/C=C/c1ccccc1)C=CC(C)(CCC=C(C)C)O2 (stereo unspecified) [BOESENBERGIN B] | 64
11 | COc1cc(O)cc(O)c1C(=O)[C@@H]1CC=C(C)[C@@H](CC=C(C)C)[C@H]1c1ccccc1 (racemic) | 8
12 | O=C1C[C@@H](c2ccccc2)Oc2cc(O)cc(O)c21 [PINOCEMBRIN] | 64
13 | CC(C)=CCCC1(C)C=Cc2c(cc3c(c2O)C(=O)C[C@@H](c2ccccc2)O3)O1 (stereo partly specified) | 64
14 | CC(=O)O[C@H]1C(=O)[C@@]2(C)[C@H]([C@H](OC(=O)c3ccccc3)[C@]3(O)C[C@H](OC(=O)[C@H](O)[C@@H](NC(=O)c4ccccc4)c4ccccc4)C(C)=C1C3(C)C)[C@]1(OC(C)=O)CO[C@@H]1C[C@@H]2O [PACLITAXEL] | >256
15 | COc1cc(O)c(C(=O)/C=C/c2ccc(O)cc2)c(OC)c1 [FLAVOKAWAIN C] | >256
16 | COc1cc(O)cc(O)c1C(=O)[C@@H]1[C@H](CC=C(C)C)C(C)=CC[C@H]1c1ccccc1 | 16
17 | CC(C)=CCC/C(C)=C/COC(=O)c1c(O)cc(O)cc1CCc1ccccc1 | 16
18 | COc1cc(O)cc(O)c1C(=O)/C=C/c1ccccc1 [CARDAMOMIN] | >256
19 | CC(C)=CC[C@@H]1C(C)=CC[C@@H](c2ccccc2)[C@@H]1C(=O)c1c(O)cc(O)cc1O [4-HYDROXYPANDURATIN A] | 16
20 | CC(C)=CCC/C(C)=C/Cc1c(O)cc2c(c1O)C(=O)C[C@@H](c1ccccc1)O2 | 8
21 | COc1cc(/C=C/c2ccccc2)oc(=O)c1 [DESMETHOXYYANGONIN] | >256
22 | COc1cc(O)c(C(=O)[C@@H]2[C@H](CC=C(C)C)C(C)=CC[C@H]2c2ccccc2)c(OC)c1 (racemic) | 64
23 | COc1cc(O)c(C/C=C(\C)CCC=C(C)C)c(O)c1C(=O)/C=C/c1ccccc1 | 16
24 | COc1cc(O)c(C(=O)[C@@H]2[C@H](CC=C(C)C)C(C)=CC[C@H]2c2ccccc2)c(O)c1 [PANDURATIN A] | 2.5
25 | COc1cc(O)c2c(c1)O[C@H](c1ccccc1)CC2=O [PINOSTROBIN] | >256
26 | COc1cc(O)c(C(=O)[C@@H]2CC=C(C)[C@@H](CC=C(C)C)[C@H]2c2ccccc2)c(O)c1 [(-)-NICOLAIOIDESIN B] | 2.5
